In patent US20260223837A1, “NATURAL LIPID PARTICLE FORMULATIONS FOR AGRICULTURAL APPLICATIONS” (INVAIO SCIENCES, INC., priority 2023, published 2026):

Tests used:
[1] = test system: Fusarium oxysporum; assay: Resazurin based Fusarium inhibition assay; type: cell-based; settings: 24 hr incubation, compared to negative controls (DMSO)
Method: The purpose of this assay was to quantify the effect of encapsulation of AZO, an antifungal agent, in NLP particles on its efficacy against a fungal pathogen (e.g., Fusarium oxysporum). Encapsulated AZO was compared to unencapsulated counterparts to determine if there is any change in efficacy. Formulations were tested in a 96-well plate and incubated with F. oxysporum conidia (spores) for 24 hr, after which resazurin dye was added. After 4 hr of incubation the color change of resazurin from blue to a fluorescent pink due to fungal respiration was assessed spectrophotometrically and the percent inhibition of respiration, as a measure of fungal growth, was determined by comparison to a conidia-only negative control. […] Fusarium oxysporum was cultured on 50% potato dextrose broth (PDB) agar plates. Using a pipette tip, a small mycelium aliquot was transferred to a 50-mL flask containing carboyxymethyl cellulose medium (CMC). […] Conidia were counted in the resuspended pellet using a hemocytometer, and diluted to 1×10^6 conidia/mL in 20% glycerol solution, from which a 1×10^5 conidia/mL working solution was prepared. […] After 24 h, 10 μL of PrestoBlue reagent was added to each well of the plate, followed by 4 h incubation, after which the fluorescence was read at 570/620 nm with a read height of 7 mm.

[2] = test system: fall army worms (FAW); assay: Corn seedling root application, fall army worm infestation; type: in vivo; settings: for plant mass / fresh weight: in vivo; for FAW mortality: two days post-infestation
Method: Two hundred corn seeds of the MBS Hybrid line are sterilized in 15% bleach sterilization solution by placing 50 seeds each in 4 separate 50 mL Falcon tubes and adding 25 mL sterilization solution into each tube. The tubes containing seeds are shaken on an orbital shaker at low speed for 15 min, after which the seeds are rinsed 3 times with sterile MilliQ water in the biological safety cabinet to ensure sterility. Six seeds are then selected from each tube and placed into CYG germination pouches (PhytoAB ca #CYG-38 LB) with 50 ml of sterile DI water. Seeds are allowed to germinate in the dark for 3 days at 25° C. and 60% relative humidity. After 3 days seedlings are moved to climate-controlled chambers with a light: dark cycle of 16:8 at 25° C. and 60% RH. At this time 25 ml of treatment solutions suspended in Hoagland's solution (Sigma-Alderich H2395-1L, 1.3 g/L, pH 6.5) are added to germination pouches. […] Seedlings are allowed to grow and uptake solution for 3 days before FAW infestation.
Six-day-old plants are infested with non-diapausing FAW at a rate of two 2nd instar larvae per plant. […] Before infestation germination pouches are sealed to prevent FAW from making direct contact with nutrient and NLP solutions. FAW are then allowed to feed on plants for a duration of 2 days in a Percival incubator (25° C., 50% RH, 16:8 Light: dark cycle).
FAW mortality is scored two days post-infestation by removing larvae from plants and probing 3 times. Larvae that are unresponsive to probing or not recovered are considered dead and the proportion of surviving larvae over initial infestation numbers are compared across treatments. Plant mass is also recorded by weighing individual seedlings after larvae are removed and average mass of seedlings are compared across treatments.

[3] = test system: whiteflies; assay: Tomato seedling root treatment, whitefly exposure; type: in vivo; settings: after 7 days
Method: Tomato seeds (N=14) are germinated and grown on a precut mesh (0.08″×0.025″ Opening; Mcmaster-Carr, Cat #1100T45) in 20 ml ½ MS media ([…] filtered without sucrose added) in a deep petri dish (100 mm×25 mm). The petri dishes are placed in a large plastic container (Sistema; 236 Oz) with holes on both sides of the container and 100 ml MilliQ water to maintain high humidity. Large plastic containers are placed in a Percival incubator (25° C., 50% RH). After 10 days, the mesh along with the seedlings on it is moved from the petri dish containing half strength MS media, and excess media on mesh is dried by blotting the roots on paper towels. […] After 3 days, the mesh with seedlings is taken out of petri dish and the roots are washed with MilliQ water 2 times and placed on a paper towel to blot off excess water. The mesh with tomato seedlings is transferred to a new petri dish with 25 ml of 1% phytogel (P8169-1 KG, Sigma-Aldrich).
From a whitefly infested plant in a rearing cage, leaves that are infested with about 200 white flies are excised using scissors and placed in a petri dish. The petri dish is placed at the base of the tomato plants on the phytagel taking care to not damage the tomato plant roots. The boxes with the tomato plant and the whiteflies are placed in an incubator with 16 h light/8 hr dark photoperiod, 26° C. and 50% humidity. […]

[4] = test system: tomato hornworm (THW); assay: Tomato seed priming, tomato hornworm infestation; type: in vivo; settings: seed priming 24 hr
Method: Tomato seeds are surface-sterilized by 1 ml 25% Bleach with 0.025% Triton X-100 in 1.5 ml centrifuge tube, then washed 3 times with 1 ml sterile water. Tomato seeds (N=50) are primed in 0.3 ml of below treatment solutions in a 1.5 ml centrifuge tube for 24 hr.
The primed tomato seeds (N=14) are germinated and grown on a precut mesh (0.08″×0.025″ Opening; Mcmaster-Carr) in 20 ml half strength Murashige and Skoog Basal Medium (MP Bio, Cat #0926231—CF) in a deep petri dish (100 mm×25 mm). The petri dishes are placed in large plastic container (236 Oz) with holes on both sides of the container and 100 ml MilliQ water to maintain high humidity. The containers are placed in a Percival incubator (about 25° C., 50% relative humidity). After 10 days, the mesh along with the seedlings on it is moved from the petri dish containing half strength MS media and excess media on mesh is dried by damping the roots on paper towels. After 3 days, the mesh with seedlings is removed from the petri dish and the roots are washed twice with MilliQ water and placed on paper towel to blot off excess water. The mesh with tomato seedlings is transferred to a new petri dish with 25 ml of 1% Phytagel (P8169-1 KG, Sigma-Aldrich). […]
The insect mortality is scored after 2 days, and the mortality is normalized against negative control (water treatment) to calculate the % larval control.

[5] = test system: WCRW; assay: Small scale (green house 10 inch pot) in-furrow assay and dose-response; type: in vivo, western corn rootworm (WCRW); settings: 2 mg/ml DE, in-furrow 3 ml, day 28
Method: Jumbo cotton balls were packed into the bottom of 10″ tall and 2.7″ diameter cylindrical containers. Wide straws were inserted for later use during the infestation process, then packed with ~660 g of silt loam soil. Soil was then watered with about 150 ml of water in three 50 ml increments 24 hrs before planting. A hole was made at a depth of 1.5 inch from the top of the soil. […] The particle size, PDI and zeta potential of these NLPs are similar to those prepared with 80 ug/ml of DE in the suspension (Table 8). The treatments were added around the edge of the hole for planting. A seed was then planted in the hole and covered with soil. Containers with seeds were then placed in the greenhouse to continue growing for 7 days until ready for infestation.
2nd instar WCRW larvae were shipped from the supplier (Crop Characteristic Inc., Farmington, MN USA) and stored at 10° C. until ready for use (less than a week). The 1st and 2nd infestations were conducted 7 and 14 days after seed planting, respectively. For each infestation, approximately 10 larvae were transferred to 0.5 ml microcentrifuge tube and released into soil via dropping the tube with the open mouth facing down into straws inserted when the pots were filled with soil. […]
The fresh weight for each whole seedling was measured using a scale and recorded.

[6] = UV stability assay of deltamethrin in NLPs; type: physicochemical
Text: In addition, the four NLP formulations were also mixed with lignosulfonate (Borresperse NA, Borregaard), a widely used UV absorption agent at 3% final concentration, ten samples were exposed to UV light, and ten represented control samples that were not exposed to UV light.
For the samples to be exposed to UV exposure, the cap of the Eppendorf tube was removed, and a single layer of Saran wrap (SC Johnson) was pulled across the top and secured with a rubber band. For the control samples, the Eppendorf tube was capped and wrapped entirely in aluminum foil to completely block UV radiation.
All samples were placed 15 cm below the UV light (Hortilux PowerVEG Full Spectrum with UV Bulb, Growershouse, Cat #901678) with the UV radiation intensity at round 150 milliwatts per square centimeter (mW/cm^2). For each treatment, two samples were analyzed by LC-MS at t=0 (immediately after preparation), at day 1, day 2, day 3, and day 6. For each timepoint two UV samples and 2 control samples were removed for analysis by LC-MS/MS. Prior to analysis, the samples were diluted to 1 ml with methanol in the original 2 mL Eppendorf tubes. A further 100× dilution was performed in methanol and the samples were transferred to HPLC vials for analysis by LC-MS.

[7] = test system: Tomato Horn Worm (THW); assay: Tomato seedling root uptake assay followed by THW infestation; settings: in vivo
Method: Tomato seeds (N=14) were germinated and grown on a precut mesh (0.08″×0.025″ Opening; Mcmaster-Carr, Cat #1100T45) in 20 ml 0.5×MS media ([…] filtered without sucrose added) in a deep petri dish (100 mm×25 mm). The petri dishes were placed in a plastic container (236 Oz) with holes on both sides of the container and 100 ml MilliQ water to maintain high humidity. The plastic containers with plants were placed in a Percival incubator (25° C., 50% relative humidity).
After 10 days, the mesh along with the seedlings on it was moved from the petri dish containing 0.5×MS media and excess media on mesh was dried by damping the roots on paper towels. The seedlings on the mesh were placed in a new deep petri dish containing formulation solution (20 ml) in the same large plastic container and Percival incubator. […] After 3 days, the mesh with seedlings was taken out of petri dish and the roots were washed with MilliQ water 2 times and placed on a paper towel to blot off excess water. […]
Five THW larvae were placed on the tomato seedlings on mesh in each petri dish and the petri dish was placed in a large plastic container (101 Oz). The insect mortality was scored after 2 days, and the mortality was normalized against negative control (water treatment) to calculate the % larval control.

[8] = test system: Colorado Potato Beetle (CPB); assay: Tomato seedling root uptake assay followed by CPB infestation; settings: 160 ug/ml in DCM
[9] = test system: WCRW; assay: Field-scale in-furrow treatment, open field trial (Example 53); type: in vivo, western corn rootworm (WCRW); settings: 2 mg/ml

| Structure (SMILES) | minimum amount required for >90% inhibition of Fusarium [1] | plant mass / fresh weight [2] | FAW mortality [2] | number of live whiteflies [3] | insect mortality and stunting [4] | protection of whole plant mass and root mass from WCRW [5] | Repeat 1 (deltamethrin concentration) ([6]; Repeat 1, initial concentration, LC-MS) | Repeat 2 (deltamethrin concentration) ([6]; Repeat 2, initial concentration, LC-MS) | deltamethrin retention rate (actual deltamethrin/input deltamethrin) ([6]; after 6 days of UV exposure (figure legend)) | Initial deltamethrin Concentration ([6]; mean of Repeat 1 and 2, LC-MS at t=0, before UV exposure) | phytotoxicity [7] | phytotoxicity to tomato seedlings [8] | root injury rating (0 to 3) [9] |
| --- | --- | --- | --- | --- | --- | --- | --- | --- | --- | --- | --- | --- | --- |
| CO/C=C(/C(=O)OC)c1ccccc1Oc1cc(Oc2ccccc2C#N)ncn1 [azoxystrobin] | 5 µg/mL |  |  |  |  |  |  |  |  |  |  |  |  |
| CN/C(=N\[N+](=O)[O-])NCc1cnc(Cl)s1 [clothianidin] |  | plant mass is the highest | FAW mortality is the highest | significantly lower | significantly higher mortality and stunting |  |  |  |  |  |  |  |  |
| CC1(C)[C@H](C(=O)O[C@H](C#N)c2cccc(Oc3ccccc3)c2)[C@@H]1C=C(Br)Br [Deltamethrin] |  | fresh weight comparable to the water treated plants | none or very low mortality |  |  | less effective in protecting whole plant mass | 104 µg/mL | 114 µg/mL | 15% | 109 µg/mL | phytotoxicity (wilting and chlorosis of plant tissue) | caused phytotoxicity to the tomato seedlings | higher root damage than the NLP644 comprising deltamethrin at 2 mg/ml treatment |
